# Assay results reported in patent US20100055065A1, “AGENT FOR INHIBITING PRODUCTION OF HEPATITIS C VIRUS AND ITS USE” (MIYAZAKI PREFECTURAL INDUSTRIAL SUPPORT FOUNDATION, priority 2008, published 2010).
# Assays:
# HCV replicon = assay: HCV replication suppressive activity test (replicon assay, luciferase); type: cell-based, Hepatitis C virus; details: for HCV replication suppressive (inhibitory) activity, in words: replicon cell assay
# Experimental: The HCV-replicon cell line was established by transducing sub-genomic RNA into human hepatoma Huh-7 cell cytoplasm. The sub-genomic RNA was prepared by replacing the translated region of HCV genome RNA structural proteins with firefly luciferase gene, internal ribosome entry site (IRES) of the encephalomyocarditis virus and neomycin phosphotransferase gene. The cell line obtained was used for assessment of production of HCV replicon RNA. The production quantity of HCV replicon RNA was measured by the luciferase assay method. (Lohmann et al., Science 285, (1999) 110; Sakamoto et al. Nat. Chem. Biol. 1, (2005) 333)
# In order to determine replication quantity of HCV-RNA, luciferase genes from firefly were transduced into HCV-RNA as a reporter gene. The gene transduction was carried out according to the method of Krieger et al. (See; Krieger et al. J. virol. 75, (2001) 4614) in such manner that luciferase genes were fused together neomycin-resistant genes beneath the IRES of HCV gene.
# With this HCV subgenome, the replication efficiency of HCV could be estimated by measuring luciferase activity in the HCV replicon cells. The HCV replicon cells used were routinely grown in DMEM (Gibco cat. No. 10569-010) supplemented with Glutamax (Invitrogen), 10% fetal bovine serum (FBS), 1% penicillin/streptomycin (Invitrogen) and 500 μg/ml G418 (Invitrogen). The cells were maintained at 37° C. in humidified atmosphere containing 5% CO2. For the HCV replication assay, the replicon cells in DMEM supplemented with Glutamax and 5% FBS were seeded in a 96-well plate so as to fill every well with 5000 cells, and incubated for 24 hours.
# The test was carried out in such a way that the HCV replicon cells were cultured for 72 hours after adding test samples in different concentrations. The Quantity of the luciferase activity was determined by the Steady-Glo Luciferase Assay System (Promega) according to the manufacture's instructions and the luminescence was measured by DTX 800 Multimode Detector (Beckman). In this test, the replication inhibitory activity is expressed as a concentration of samples required for inhibiting 50 percents of the replication of HCV replicon cell (IC50). Specific activity is a reciprocal number of IC50 (1/IC50). Total activity is calculated by multiplying the yield weight of the HCV replicon cell by specific activity.
# [1] = Cytotoxicity test (Cell Counting Kit-8); type: cell-based, human; details: human; HCV replicon cells; Table 1
# Experimental: (§1) The cytotoxicity of the samples was measured by Cell Counting Kit-8 (CCK-8; Dojindo Molecular Technologies) according to the manufacture's instructions. Briefly, 10 μl/a well of CCK-8 reagent were added to the HCV replicon cells cultured in a 96-well plate and then incubated at 37° C. for 60 min. The absorbance of each well was measured at 450 nm with a reference wavelength at 650 nm using an Emax Precision microplate reader (Molecular Devices Inc.). Cell viability was calculated as relative index of control cells and effects of samples and was expressed as the concentration of samples required for 50% cytotoxicity of the cells (CC50).
# [2] = test system: HCV replicon cells (human hepatoma Huh-7); assay: Cytotoxicity test (Cell Counting Kit-8); type: cell-based; details: Table 1
# Experimental: as §1
# [3] = HCV replicon cells, 72 hours, Table 1
Compound,Replication suppressive activity IC50 (HCV replicon; [3]) [µg/mL],Ratio CC50/IC50 (HCV replicon; Table 1),"HCV replication suppressive (inhibitory) activity, in words (HCV replicon)","IC50 (HCV replicon; Hepatitis C virus, HCV replicon cells, 72 hours, Table 1) [µg/mL]",CC50 [1] [µg/mL],Cytotoxicity CC50 [2] [µg/mL]
Catechin,16.18,6.2,no anti-HCV production activity,,,
O=C(/C=C/c1ccc(O)c(O)c1)O[C@@H]1C[C@](O)(C(=O)O)C[C@@H](O)[C@H]1O [chlorogenic acid],,,seem not to have the inhibition activity,,,
Oc1cc(O)c2c(c1)O[C@H](c1ccc(O)c(O)c1)[C@H](O)C2 [Epicatechin],,4.2,,27.3,114,
Oc1cc(O)c2c(c1)O[C@H](c1ccc(O)c(O)c1)[C@H](O)[C@H]2c1c(O)cc(O)c2c1O[C@H](c1ccc(O)c(O)c1)[C@H](O)C2 [Procyanidin B2],>25.0,,no anti-HCV production activity,,,>25.0
